From EP4755886A1 (Chengdu Chipscreen Pharmaceutical Ltd., priority 2023, dated 2025)

Tests used:
MTAP^-/- HCT-116 cells = test: Cell proliferation (MTS), MTAP-/- HCT-116; assay type: cell-based, human; conditions: for IC50: Homo sapiens, 240 h, MTAP-/- HCT-116, 10 days with compound, MTS reading, read-out: IC50 HCT116 MTAP-/-; for Selectivity: HCT116 WT IC50 relative to HCT116 MTAP-/- IC50
Outline: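 MTAP-/- (CRISPR/Cas9 biallelic knockout) or wild-type HCT-116 cells seeded at 100 cells/well, treated next day with 8-point 3-fold dilutions (top 20 µM) for 10 days at 37 °C, 5% CO2. Viability read by MTS; IC50 from four-parameter logistic fit of inhibition rate vs log concentration.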

hERG = biological target: T1, hERG (Homo sapiens, UniProt Q12809); test: hERG test (Predictor hERG Fluorescence Polarization Assay Kit); assay type: binding; conditions: for inhibition at 3.5 h, 10 µM: 10 µM test substance, three duplicate wells; for IC50: only 10 µM tested
T1 construct: purchased ThermoFisher Scientific PV5365
T1 sequence (Q12809 whole entry): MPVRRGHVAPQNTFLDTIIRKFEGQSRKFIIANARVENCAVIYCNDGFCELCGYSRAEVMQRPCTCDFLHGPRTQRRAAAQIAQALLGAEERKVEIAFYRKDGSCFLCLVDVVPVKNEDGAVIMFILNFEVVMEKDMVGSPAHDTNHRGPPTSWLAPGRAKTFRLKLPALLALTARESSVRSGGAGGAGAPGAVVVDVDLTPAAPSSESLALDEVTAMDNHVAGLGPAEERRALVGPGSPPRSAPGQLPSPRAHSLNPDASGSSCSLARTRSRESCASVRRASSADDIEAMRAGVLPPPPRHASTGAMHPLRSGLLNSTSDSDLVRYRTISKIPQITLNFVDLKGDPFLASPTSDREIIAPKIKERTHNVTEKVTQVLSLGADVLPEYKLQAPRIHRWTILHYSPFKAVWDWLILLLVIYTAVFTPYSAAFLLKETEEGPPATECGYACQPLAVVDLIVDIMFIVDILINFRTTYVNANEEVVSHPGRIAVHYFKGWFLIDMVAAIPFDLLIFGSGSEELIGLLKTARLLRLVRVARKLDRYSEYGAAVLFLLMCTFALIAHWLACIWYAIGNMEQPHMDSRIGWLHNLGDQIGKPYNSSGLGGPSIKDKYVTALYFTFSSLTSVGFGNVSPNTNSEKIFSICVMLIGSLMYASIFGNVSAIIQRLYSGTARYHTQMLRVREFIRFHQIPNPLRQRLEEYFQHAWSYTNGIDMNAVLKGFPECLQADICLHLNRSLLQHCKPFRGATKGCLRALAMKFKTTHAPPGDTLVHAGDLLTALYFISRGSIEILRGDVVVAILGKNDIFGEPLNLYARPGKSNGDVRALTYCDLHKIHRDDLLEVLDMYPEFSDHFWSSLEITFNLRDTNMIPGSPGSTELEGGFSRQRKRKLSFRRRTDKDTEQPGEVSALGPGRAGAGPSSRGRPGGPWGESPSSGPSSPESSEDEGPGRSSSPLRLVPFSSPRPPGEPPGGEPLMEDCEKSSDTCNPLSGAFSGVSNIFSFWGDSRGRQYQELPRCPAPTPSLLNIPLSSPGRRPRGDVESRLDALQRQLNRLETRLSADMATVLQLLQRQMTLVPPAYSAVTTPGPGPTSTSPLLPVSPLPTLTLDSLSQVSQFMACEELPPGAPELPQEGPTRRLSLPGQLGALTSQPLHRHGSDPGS
Outline: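 Fluorescence polarization tracer displacement using hERG membranes and Tracer Red, test compound at 10 µM final, E-4031 as positive control, triplicate wells. Incubated 3.5 h at 25 °C in the dark; mP read (G factor 2.14) and percent inhibition calculated.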

PK experiment in rats = assay type: in vivo; conditions: rat; SD male rats, PO 10 mg/kg, vehicle 0.5% MC/0.2% Tween 80, plasma
Experimental: The samples were analyzed by LC-MS/MS. […] Table 6. Pharmacokinetic parameters for rats

[1] = system: human large cell lung cancer cell line LU99; test: Efficacy in LU99 xenograft mouse model; assay type: in vivo, Balb/c nude mice; conditions: PO, qd, 28 days
Experimental: The human large cell lung cancer cell line LU99 was purchased from Nanjing Cobioer Biosciences Co., Ltd. (CBP61512) and cultured in RPMI-1640 medium (Gibco) containing 10% fetal bovine serum (Gibco); the test substances were prepared into suspensions at concentrations of 0.3 mg/mL, 1 mg/mL, and 5 mg/mL using a 0.5% aqueous MC solution containing 0.2% Tween 80. Reference Example 6 (MRTX1719) was prepared into a 5 mg/mL clear solution using 40% PEG400 normal saline containing 2% DMSO.
LU99 cells in the logarithmic growth phase were digested, collected, and counted, and the cell density was adjusted to 2 × 10^7 cells/mL using a 1:1 serum-free medium and matrigel (Corning). 18-20 g of Balb/c nude mice (Beijing Huafukang Biotechnology Co., Ltd.) were inoculated subcutaneously with 100 µL of cell suspension per mouse. On day 12 after inoculation, animals with a mean tumor volume of 116 mm^3 were randomly grouped, with 7 animals in each group. The test substances were intragastrically administered at 3 mg/kg, 10 mg/kg, and 50 mg/kg once daily, and MRTX1719 was intragastrically administered at 50 mg/kg once daily. A vehicle (2% DMSO + 40% PEG400 + 58% normal saline) was intragastrically administered to the blank group at a dose of 10 mL/kg once daily. Administration was performed for 28 days in total.
After the animals were inoculated with LU99 cells, the tumor volume was measured 2-3 times a week, and the tumor volume was calculated based on length × width^2 × 0.5. On the day when the last administration was completed, except for the mice with tumor regression, which were subjected to discontinuation observation, the remaining mice were euthanized.
In the formula, VTt represents the tumor volume of the treatment group at each measurement, and VT0 represents the tumor volume measured when the treatment group is grouped; VCt represents the tumor volume of the model control group at each measurement, and VC0 represents the tumor volume measured when the model control group is grouped.
Data were analyzed using GraphPad Prism 9.0 software and expressed as Mean ± SEM (standard error). Pairwise comparisons between each administration group and the model control group were performed using one-way analysis of variance (ANOVA). Variance homogeneity was determined using the Brown-Forsythe method, and variance heterogeneity was determined using the Dunnett's T3 method. Table 8. Efficacy evaluation in LU99 xenograft mouse model

PK experiment in mice = conditions: mouse, plasma, po, 10 mg/kg
Experimental: Experimental materials: the experimental animals were healthy adult female BALB/c mice (provided by Sichuan Vital River Laboratory Animal Technology Co., Ltd.).
Administration mode and sample collection in mice: BALB/c female mice received oral intragastrical administration (10 mg/kg, vehicle: 0.5% methylcellulose/0.2% Tween 80), and 60 µL of whole blood from the venous plexus of the fundus of the mice at different time points was collected at 0.25 h, 0.5 h, 1 h, 2 h, 4 h, 6 h, 8 h, and 24 h after administration and centrifuged at 4000 rpm for 6 min to collect plasma.
10 µL of mouse plasma sample was added to 190 µL of acetonitrile solution containing an internal standard to precipitate protein. The mixture was vortexed for 10 min and centrifuged at 4000 rpm for 10 min. The supernatant was collected and added to a 96-well plate. The samples were analyzed by LC-MS/MS. The drug concentrations in the plasma of mice at different time points after intragastric administration of the example compounds were measured by an LC-MS/MS method, and the related pharmacokinetic parameters were calculated, such that the pharmacokinetic behavior of the compounds in the mice was studied, and the pharmacokinetic characteristics were evaluated.

[2] = human, probe Predictor hERG Tracer Red

Structure (SMILES)	IC50 (MTAP^-/- HCT-116 cells) [nM]	inhibition at 3.5 h, 10 µM (hERG; herg membrane fluorescence polarization) [%]	IC50 (hERG) [nM]	AUC(0-t) (PK experiment in rats) [ng·h/mL]	Cmax (PK experiment in rats) [ng/mL]	TGI ([1]; 3 mg/kg) [%]	Tumor volume ([1]; 3 mg/kg) [mm^3]	TGI ([1]; 10 mg/kg) [%]	Tumor volume ([1]; 10 mg/kg) [mm^3]	TGI ([1]; 50 mg/kg) [%]	Tumor volume ([1]; 50 mg/kg) [mm^3]	AUC(0-t) (PK experiment in mice) [ng·h/mL]	Cmax (PK experiment in mice) [ng/mL]	Selectivity (MTAP^-/- HCT-116 cells)	inhibition at 3.5 h, 10 µM (hERG; [2]) [%]	AUC(0-t) (PK experiment in mice; female, BALB/c) [ng·h/mL]	Cmax (PK experiment in mice; female, BALB/c) [ng/mL]
CN(C(=O)c1cc2c(cc1F)nc(N)c1cnn(C)c12)[C@@H]1COc2cc(C#Cc3cnn(C)c3)ccc21 [Compound 5A, (S)-4-amino-7-fluoro-N,1-dimethyl-N-(6-((1-methyl-1H-pyrazol-4-yl)ethynyl)-2,3-dihydrobenzofuran-3-yl)-1H-pyrazolo[4,3-c]quinoline-8-carboxamide]	1.7	27.7	> 10000	15600 ± 4640	2180 ± 777	81.96	438.73	95.20	202.05	103.12	60.72	15700 ± 1600	2220 ± 230				
Cc1nn(C)cc1C#Cc1ccc2c(c1)OC[C@H]2N(C)C(=O)c1cc2c3c(c(N)nc2cc1Cl)COC3 [Compound 50A, (S)-4-amino-7-chloro-N-(6-((1,3-dimethyl-1H-pyrazol-4-yl)ethynyl)-2,3-dihydrobenzofuran-3-yl)-N-methyl-1,3-dihydrofuro[3,4-c]quinoline-8-carboxamide]	2.4		> 10000											180	22.4		
CN(C(=O)c1cc2c3c(c(N)nc2cc1Cl)COC3)[C@@H]1COc2cc(C#Cc3cnn(C4CC4)c3)ccc21 [Compound 43A, (S)-4-amino-7-chloro-N-(6-((1-cyclopropyl-1H-pyrazol-4-yl)ethynyl)-2,3-dihydrobenzofuran-3-yl)-N-methyl-1,3-dihydrofuro[3,4-c]quinoline-8-carboxamide]	3.8		> 10000	9650 ± 1170	1220 ± 417	83.27	415.58	94.77	210.31	104.92	28.13			170	30.3 ± 29.9	32300 ± 3340	3420 ± 913
